Each structure is given as a SMILES string.

For orientation: IC50 means the concentration at which inhibition is half-maximal.

The target of the assay is hQC (Homo sapiens, UniProt Q16769). Briefly: Inhibitor assay for glutaminyl cyclase activity (fluorometric, H-Gln-βNA / H-Gln-AMC). In kind it is biochemical. The settings on record: read-out: IC50. Put shortly:
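Ki values came from fitting progress curves to a competitive inhibition model; rapid screens used 4 mM inhibitor with substrate at KM. QC activity was read at 30 °C via auxiliary pyroglutamyl aminopeptidase releasing βNA (0.2 mM H-Gln-βNA, 0.2 M Tris pH 8.0, 20 mM EDTA) or AMC (0.05 M Tris pH 8.0, 5 mM EDTA).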

Chain of hQC (Q16769 29-361): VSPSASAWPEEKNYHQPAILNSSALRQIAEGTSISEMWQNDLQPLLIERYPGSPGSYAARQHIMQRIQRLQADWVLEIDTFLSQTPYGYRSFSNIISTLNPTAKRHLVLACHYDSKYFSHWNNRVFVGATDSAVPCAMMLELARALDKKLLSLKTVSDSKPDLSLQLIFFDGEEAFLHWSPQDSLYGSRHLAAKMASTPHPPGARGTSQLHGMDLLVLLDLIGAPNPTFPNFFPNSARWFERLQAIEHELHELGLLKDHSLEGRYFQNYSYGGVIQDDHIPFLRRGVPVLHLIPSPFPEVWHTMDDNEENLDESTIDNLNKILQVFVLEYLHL

Turning to `CC(=O)C1=C(O)C(=O)N(c2ccc3[nH]cnc3c2)C1C1COC(C)(C)O1` (stereo not shown) [Compound 295, 4-Acetyl-1-(1H-benzoimidazol-5-yl)-5-(2,2-dimethyl-[1,3]dioxolan-4-yl)-3-hydroxy-1,5-dihydro-pyrrol-2-one], the IC50 was 9850 nM. The result for `O=C(C1=C(O)C(=O)N(c2ccc3[nH]cnc3c2)C1c1ccnc2ccccc12)C1CC1` (stereo not shown) [Compound 296, 1-(1H-Benzoimidazol-5-yl)-4-cyclopropanecarbonyl-3-hydroxy-5-quinolin-4-yl-1,5-dihydro-pyrrol-2-one] reads 3000 nM. The value for `O=C(O)CC1=C(O)C(=O)N(c2ccc3[nH]cnc3c2)C1c1ccnc2ccccc12` (stereo not shown) [Compound 297, [1-(1H-Benzoimidazol-5-yl)-4-hydroxy-5-oxo-2-quinolin-4-yl-2,5-dihydro-1H-pyrrol-3-yl]-acetic acid] was 2380 nM. As to `Cc1[nH]c2ccccc2c1C1C(C(=O)C2CC2)=C(O)C(=O)N1c1ccc2[nH]cnc2c1` (stereo not shown) [Compound 298, 1-(1H-Benzoimidazol-5-yl)-4-cyclopropanecarbonyl-3-hydroxy-5-(2-methyl-1H-indol-3-yl)-1,5-dihydro-pyrrol-2-one], the IC50 is 7870 nM. The result for `CSCC1=C(O)C(=O)N(c2ccc3[nH]cnc3c2)C1c1cccc(F)c1` (stereo not shown) [Compound 299, 1-(1H-Benzoimidazol-5-yl)-5-(3-fluoro-phenyl)-3-hydroxy-4-methylsulfanylmethyl-1,5-dihydro-pyrrol-2-one] reads 5260 nM; that for `CC(C)C1=C(O)C(=O)N(c2ccc3[nH]cnc3c2)C1C1COC(C)(C)O1` (stereo not shown) [Compound 300, 1-(1H-Benzoimidazol-5-yl)-5-(2,2-dimethyl-[1,3]dioxolan-4-yl)-3-hydroxy-4-isopropyl-1,5-dihydro-pyrrol-2-one], 4 nM; that for `CC(=O)C1=C(O)C(=O)N(c2ccc3[nH]cnc3c2)C1c1cccc(Cl)c1` (stereo not shown) [Compound 301, 4-Acetyl-1-(1H-benzoimidazol-5-yl)-5-(3-chloro-phenyl)-3-hydroxy-1,5-dihydro-pyrrol-2-one], 130 nM. The value for `CCC1=C(O)C(=O)N(c2ccc3[nH]cnc3c2)C1c1ccnc2ccccc12` (stereo not shown) [Compound 302, 1-(1H-Benzoimidazol-5-yl)-4-ethyl-3-hydroxy-5-quinolin-4-yl-1,5-dihydro-pyrrol-2-one] was 2920 nM; that for `O=C(C1=C(O)C(=O)N(c2ccc3[nH]cnc3c2)C1c1ccc(CO)o1)C1CCCCC1` (stereo not shown) [Compound 303, 1-(1H-Benzoimidazol-5-yl)-4-cyclohexanecarbonyl-3-hydroxy-5-(5-hydroxymethyl-furan-2-yl)-1,5-dihydro-pyrrol-2-one] was 400 nM. On to `O=C1C(O)=C(c2cccc(O)c2)C(c2ccc3cccc(O)c3n2)N1c1ccc2[nH]cnc2c1` (stereo not shown) [Compound 304, 1-(1H-Benzoimidazol-5-yl)-3-hydroxy-4-(3-hydroxy-phenyl)-5-(8-hydroxy-quinolin-2-yl)-1,5-dihydro-pyrrol-2-one], for which the IC50 worked out at 220 nM. In the case of `O=C1C(O)=C(c2ccccc2)C(c2ccc(Cl)c(C(F)(F)F)c2)N1c1ccc2[nH]cnc2c1` (stereo not shown) [Compound 305, 1-(1H-Benzoimidazol-5-yl)-5-(4-chloro-3-trifluoromethyl-phenyl)-3-hydroxy-4-phenyl-1,5-dihydro-pyrrol-2-one], the half-inhibitory concentration (IC50) was determined as 1750 nM. The value for `Cc1cccc(C2C(C(=O)c3ccsc3)=C(O)C(=O)N2c2ccc3[nH]cnc3c2)n1` (stereo not shown) [Compound 306, 1-(1H-Benzoimidazol-5-yl)-3-hydroxy-5-(6-methyl-pyridin-2-yl)-4-(thiophene-3-carbonyl)-1,5-dihydro-pyrrol-2-one] was 400 nM; that for `Cc1cc(C2C(c3cccc(O)c3)=C(O)C(=O)N2c2ccc3[nH]cnc3c2)oc1C` (stereo not shown) [Compound 307, 1-(1H-Benzoimidazol-5-yl)-5-(4,5-dimethyl-furan-2-yl)-3-hydroxy-4-(3-hydroxy-phenyl)-1,5-dihydro-pyrrol-2-one] was 2830 nM; that for `O=C(O)c1ccc(C2C(C(=O)C3CC3)=C(O)C(=O)N2c2ccc3[nH]cnc3c2)o1` (stereo not shown) [Compound 308, 5-[1-(1H-Benzoimidazol-5-yl)-3-cyclopropanecarbonyl-4-hydroxy-5-oxo-2,5-dihydro-1H-pyrrol-2-yl]-furan-2-carboxylic acid] was 400 nM. For `O=C1C(O)=C(c2ccccc2)C(c2ccc(N3CCCC3)cc2)N1c1ccc2[nH]cnc2c1` (stereo not shown) [Compound 309, 1-(1H-Benzoimidazol-5-yl)-3-hydroxy-4-phenyl-5-(4-pyrrolidin-1-yl-phenyl)-1,5-dihydro-pyrrol-2-one], the IC50 worked out at 6880 nM. The value for `CC(C)(C)C(=O)C1=C(O)C(=O)N(c2ccc3[nH]cnc3c2)C1c1ccc2cccc(O)c2n1` (stereo not shown) [Compound 310, 1-(1H-Benzoimidazol-5-yl)-4-(2,2-dimethyl-propionyl)-3-hydroxy-5-(8-hydroxy-quinolin-2-yl)-1,5-dihydro-pyrrol-2-one] was 1030 nM; that for `O=C(O)CC1=C(O)C(=O)N(c2ccc3[nH]cnc3c2)C1c1cccc(F)c1` (stereo not shown) [Compound 311, [1-(1H-Benzoimidazol-5-yl)-2-(3-fluoro-phenyl)-4-hydroxy-5-oxo-2,5-dihydro-1H-pyrrol-3-yl]-acetic acid] was 4540 nM.

As to `CC(=O)C1=C(O)C(=O)N(c2ccc3[nH]cnc3c2)C1C1=CCCCC1` (stereo not shown) [Compound 312, 4-Acetyl-1-(1H-benzoimidazol-5-yl)-5-cyclohex-1-enyl-3-hydroxy-1,5-dihydro-pyrrol-2-one], the IC50 amounted to 1840 nM. In the case of `CCCC(=O)C1=C(O)C(=O)N(c2ccc3[nH]cnc3c2)C1CCC` (stereo not shown) [Compound 313, 1-(1H-Benzoimidazol-5-yl)-4-butyryl-3-hydroxy-5-propyl-1,5-dihydro-pyrrol-2-one], the IC50 was found to be 5170 nM. On to `CC(=O)C1=C(O)C(=O)N(c2ccc3[nH]cnc3c2)C1C1CCOC1` (stereo not shown) [Compound 314, 4-Acetyl-1-(1H-benzoimidazol-5-yl)-3-hydroxy-5-(tetrahydro-furan-3-yl)-1,5-dihydro-pyrrol-2-one], for which the IC50 is 4810 nM. In the case of `CCC1=C(O)C(=O)N(c2ccc3[nH]cnc3c2)C1c1cc(F)cc(F)c1F` (stereo not shown) [Compound 315, 1-(1H-Benzoimidazol-5-yl)-4-ethyl-3-hydroxy-5-(2,3,5-trifluoro-phenyl)-1,5-dihydro-pyrrol-2-one], the IC50 was determined as 1480 nM. Regarding `Cc1cccc(C2C(C(=O)C3CC3)=C(O)C(=O)N2c2ccc3[nH]cnc3c2)n1` (stereo not shown) [Compound 316, 1-(1H-Benzoimidazol-5-yl)-4-cyclopropanecarbonyl-3-hydroxy-5-(6-methyl-pyridin-2-yl)-1,5-dihydro-pyrrol-2-one], the IC50 is 580 nM. The result for `O=C(C1=C(O)C(=O)N(c2ccc3[nH]cnc3c2)C1C1CCOC1)C1CC1` (stereo not shown) [Compound 317, 1-(1H-Benzoimidazol-5-yl)-4-cyclopropanecarbonyl-3-hydroxy-5-(tetrahydro-furan-3-yl)-1,5-dihydro-pyrrol-2-one] reads 7690 nM; that for `CC(=O)C1=C(O)C(=O)N(c2ccc3[nH]cnc3c2)C1c1ccnc2ccccc12` (stereo not shown) [Compound 318, 4-Acetyl-1-(1H-benzoimidazol-5-yl)-3-hydroxy-5-quinolin-4-yl-1,5-dihydro-pyrrol-2-one], 1750 nM. The result for `CC1=C(O)C(=O)N(c2ccc3[nH]cnc3c2)C1c1ccc2cccc(O)c2n1` (stereo not shown) [Compound 319, 1-(1H-Benzoimidazol-5-yl)-3-hydroxy-5-(8-hydroxy-quinolin-2-yl)-4-methyl-1,5-dihydro-pyrrol-2-one] reads 2830 nM.

For the origin of these results see patent publication US8278345B2, “Inhibitors of glutaminyl cyclase” (Probiodrug AG, priority 2006, dated 2012).
